Tests used:
[1] = Ocular tissue distribution after multiple topical ocular doses of 14C-F6H8, liquid scintillation counting; format: in vivo, female Dutch Belted rabbits; details: for Mean concentration of radioactivity, Conjunctiva (bulbar) / Mean concentration of radioactivity, Conjunctiva (palpebral) / Mean concentration of radioactivity, Cornea / Mean concentration of radioactivity, Lacrimal gland (accessory) / Mean concentration of radioactivity, Lacrimal gland (main) / Mean concentration of radioactivity, Meibomian glands / Mean concentration of radioactivity, Sclera (anterior) / Mean concentration of radioactivity, Tears: multiple dose (nine doses)
Protocol: Animals are not fasted prior to dose administration. All animals receive single 35 μL-drops of the dose formulation in each eye, with the right eye dosed first. All collection times are based on the time of dosing of the second (left) eye for the last dose, as applicable.
After the dose is administered, the eye is allowed to close naturally. Each animal is then restrained for approximately 1 minute to prevent rubbing of the eyes.
Tears and Ocular Tissue Collection: Tears are collected from two animals per group per time point at 0.25, 0.5, 1, 2, 4, 8, and 24 hours post-dose following the single dose or the last dose of the multiple dose scheme. Tears are collected using Tear Flo Test (TFT) strips that were dye free. One strip of paper is used for each eye for each time point. Following collection, the tube containing the strip is placed on dry ice or stored at approximately −70° C. until analysed.
At the time of sacrifice, both eyes are enucleated and ocular tissues including Aqueous humour, Conjunctiva (bulbar), Conjunctiva (palpebral), Lacrimal gland (accessory), Lacrimal gland (main), Meibomian glands (tarsal plate), Choroid-Retinal pigmented epithelium (Choroid-RPE), Cornea, Iris-ciliary body (ICB), Retina, Sclera (anterior), Sclera (posterior), Vitreous humour are collected.
Radioanalysis: All samples are analyzed for radioactivity in a Model 2900TR liquid scintillation counter (Packard Instrument Company) for at least 5 minutes or 100,000 counts, utilizing Ultima Gold XR or Hionic Fluor scintillation cocktails (Perkin Elmer). Each sample is homogenized before radioanalysis, unless the entire sample is used for analysis. All samples are analyzed in duplicate if sample size allows.
For Conjunctiva (bulbar and palpebral), Cornea, Lacrimal gland (main), Meibomian glands, Retina, and Sclera (anterior and posterior), each sample is digested in 2M sodium hydroxide in ethanol (80:20, v:v) and maintained at room temperature or in an oven set no higher than 30° C. until dissolved. Scintillation cocktail is added, and the samples are shaken and analyzed directly by LSC.
For Lacrimal gland (accessory), each sample is digested in 2M sodium hydroxide in ethanol (80:20, v:v) and maintained at room temperature or in an oven set no higher than 30° C. until dissolved. The sample is homogenized by mixing and duplicate weighed aliquots are analyzed directly by LSC.
For Tears, at least 10 mL of Ultima Gold XR scintillation cocktail is added, and the samples are shaken and analyzed by LSC.
Multiple topical ocular administration: The rabbits receive twice daily doses (approximately 12 hours apart±20 minutes) of 35 μl ^14C—F6H8 administered to both eyes for four consecutive days, and on the fifth day receive a single dose in the morning to both eyes (a total of nine doses). The administered dose level at each dosing occasion is approximately 47 mg/eye, equivalent to […]. Following the last dose on Study Day 5, two animals per time point are sacrificed at 0.25, 0.5, 1, 2, 4, 8, and 24 hours post-dose in a sparse sampling profile. Ocular tissues (including tears collected prior to sacrifice) are collected from all animals at sacrifice.

[2] = Quantitative autoradiography of whole head after single topical ocular dose of 14C-F6H8; format: in vivo, female Dutch Belted rabbits; details: single dose 35 μl
Excerpt: Quantitative Autoradiography: Animals are euthanized with sodium pentobarbital and blood is collected via cardiac puncture. Immediately after blood collection, the animals were frozen for quantitative autoradiography. The frozen heads are embedded in chilled carboxymethyl cellulose and frozen into blocks. Appropriate sections are collected on adhesive tape at […], in a Leica CM 3600 cryomicrotome. Mounted sections are exposed for 4 days on phosphor imaging screens along with fortified blood standards for subsequent calibration of the image analysis software and subsequently scanned using a Typhoon scanner. The autoradiographic standard image data are sampled using InterFocus Imaging Ltd. MCID™ Analysis software to create a calibrated standard curve. Specified tissues and fluids are analysed. Tissue concentrations are interpolated from each standard curve as nanocuries/g and then converted to ng equivalents/g on the basis of the test article specific activity.
The highest concentrations (>10000 ng equivalents ^14C—F6H8/g) are found in the anterior tissues in the order eyelid margin (443000)>internal eyelid (171000)>cornea (33500). Other tissues with high concentrations are the external eyelid skin, nasolacrimal duct, and nasal turbinates.

[3] = multiple dose, between 0.25 and 4 hours post-dose

Mean concentration of radioactivity, Conjunctiva (bulbar) ([1]; 0.25 h after last dose): 8290 ng Equivalents ^14C-F6H8/g
Mean concentration of radioactivity, Conjunctiva (palpebral) ([1]; 0.25 h after last dose): 14000 ng Equivalents ^14C-F6H8/g
Mean concentration of radioactivity, Cornea ([1]; 0.25 h after last dose): 20600 ng Equivalents ^14C-F6H8/g
Mean concentration of radioactivity, Lacrimal gland (accessory) ([1]; 0.25 h after last dose): 7120 ng Equivalents ^14C-F6H8/g
Mean concentration of radioactivity, Lacrimal gland (main) ([1]; 0.25 h after last dose): 7090 ng Equivalents ^14C-F6H8/g
Mean concentration of radioactivity, Meibomian glands ([1]; 0.25 h after last dose): 222000 ng Equivalents ^14C-F6H8/g
Mean concentration of radioactivity, Sclera (anterior) ([1]; 0.25 h after last dose): 3550 ng Equivalents ^14C-F6H8/g
Mean concentration of radioactivity, Tears ([1]; 0.25 h after last dose): 2330000 ng Equivalents ^14C-F6H8/g
Mean concentration of radioactivity, Conjunctiva (bulbar) ([1]; 0.5 h after last dose): 5280 ng Equivalents ^14C-F6H8/g
Mean concentration of radioactivity, Conjunctiva (palpebral) ([1]; 0.5 h after last dose): 11900 ng Equivalents ^14C-F6H8/g
Mean concentration of radioactivity, Cornea ([1]; 0.5 h after last dose): 21000 ng Equivalents ^14C-F6H8/g
Mean concentration of radioactivity, Lacrimal gland (accessory) ([1]; 0.5 h after last dose): 8190 ng Equivalents ^14C-F6H8/g
Mean concentration of radioactivity, Lacrimal gland (main) ([1]; 0.5 h after last dose): 8140 ng Equivalents ^14C-F6H8/g
Mean concentration of radioactivity, Meibomian glands ([1]; 0.5 h after last dose): 145000 ng Equivalents ^14C-F6H8/g
Mean concentration of radioactivity, Sclera (anterior) ([1]; 0.5 h after last dose): 2650 ng Equivalents ^14C-F6H8/g
Mean concentration of radioactivity, Tears ([1]; 0.5 h after last dose): 872000 ng Equivalents ^14C-F6H8/g
Mean concentration of radioactivity, Conjunctiva (bulbar) ([1]; 1 h after last dose): 4440 ng Equivalents ^14C-F6H8/g
Mean concentration of radioactivity, Conjunctiva (palpebral) ([1]; 1 h after last dose): 11300 ng Equivalents ^14C-F6H8/g
Mean concentration of radioactivity, Cornea ([1]; 1 h after last dose): 27600 ng Equivalents ^14C-F6H8/g
Mean concentration of radioactivity, Lacrimal gland (accessory) ([1]; 1 h after last dose): 4770 ng Equivalents ^14C-F6H8/g
Mean concentration of radioactivity, Lacrimal gland (main) ([1]; 1 h after last dose): 4610 ng Equivalents ^14C-F6H8/g
Mean concentration of radioactivity, Meibomian glands ([1]; 1 h after last dose): 92900 ng Equivalents ^14C-F6H8/g
Mean concentration of radioactivity, Sclera (anterior) ([1]; 1 h after last dose): 3920 ng Equivalents ^14C-F6H8/g
Mean concentration of radioactivity, Tears ([1]; 1 h after last dose): 742000 ng Equivalents ^14C-F6H8/g
Mean concentration of radioactivity, Conjunctiva (bulbar) ([1]; 2 h after last dose): 3970 ng Equivalents ^14C-F6H8/g
Mean concentration of radioactivity, Conjunctiva (palpebral) ([1]; 2 h after last dose): 7510 ng Equivalents ^14C-F6H8/g
Mean concentration of radioactivity, Cornea ([1]; 2 h after last dose): 15900 ng Equivalents ^14C-F6H8/g
Mean concentration of radioactivity, Lacrimal gland (accessory) ([1]; 2 h after last dose): 5140 ng Equivalents ^14C-F6H8/g
Mean concentration of radioactivity, Lacrimal gland (main) ([1]; 2 h after last dose): 5040 ng Equivalents ^14C-F6H8/g
Mean concentration of radioactivity, Meibomian glands ([1]; 2 h after last dose): 100000 ng Equivalents ^14C-F6H8/g
Mean concentration of radioactivity, Sclera (anterior) ([1]; 2 h after last dose): 2080 ng Equivalents ^14C-F6H8/g
Mean concentration of radioactivity, Tears ([1]; 2 h after last dose): 832000 ng Equivalents ^14C-F6H8/g
Mean concentration of radioactivity, Conjunctiva (bulbar) ([1]; 4 h after last dose): 3840 ng Equivalents ^14C-F6H8/g
Mean concentration of radioactivity, Conjunctiva (palpebral) ([1]; 4 h after last dose): 6920 ng Equivalents ^14C-F6H8/g
Mean concentration of radioactivity, Cornea ([1]; 4 h after last dose): 17500 ng Equivalents ^14C-F6H8/g
Mean concentration of radioactivity, Lacrimal gland (accessory) ([1]; 4 h after last dose): 9280 ng Equivalents ^14C-F6H8/g
Mean concentration of radioactivity, Lacrimal gland (main) ([1]; 4 h after last dose): 8890 ng Equivalents ^14C-F6H8/g
Mean concentration of radioactivity, Meibomian glands ([1]; 4 h after last dose): 70300 ng Equivalents ^14C-F6H8/g
Mean concentration of radioactivity, Sclera (anterior) ([1]; 4 h after last dose): 3470 ng Equivalents ^14C-F6H8/g
Mean concentration of radioactivity, Tears ([1]; 4 h after last dose): 103000 ng Equivalents ^14C-F6H8/g
Mean concentration of radioactivity, Conjunctiva (bulbar) ([1]; 8 h after last dose): 2970 ng Equivalents ^14C-F6H8/g
Mean concentration of radioactivity, Conjunctiva (palpebral) ([1]; 8 h after last dose): 5160 ng Equivalents ^14C-F6H8/g
Mean concentration of radioactivity, Cornea ([1]; 8 h after last dose): 22000 ng Equivalents ^14C-F6H8/g
Mean concentration of radioactivity, Lacrimal gland (accessory) ([1]; 8 h after last dose): 5100 ng Equivalents ^14C-F6H8/g
Mean concentration of radioactivity, Lacrimal gland (main) ([1]; 8 h after last dose): 4650 ng Equivalents ^14C-F6H8/g
Mean concentration of radioactivity, Meibomian glands ([1]; 8 h after last dose): 52900 ng Equivalents ^14C-F6H8/g
Mean concentration of radioactivity, Sclera (anterior) ([1]; 8 h after last dose): 2650 ng Equivalents ^14C-F6H8/g
Mean concentration of radioactivity, Tears ([1]; 8 h after last dose): 32200 ng Equivalents ^14C-F6H8/g
Mean concentration of radioactivity, Conjunctiva (bulbar) ([1]; 24 h after last dose): 2750 ng Equivalents ^14C-F6H8/g
Mean concentration of radioactivity, Conjunctiva (palpebral) ([1]; 24 h after last dose): 4410 ng Equivalents ^14C-F6H8/g
Mean concentration of radioactivity, Cornea ([1]; 24 h after last dose): 16200 ng Equivalents ^14C-F6H8/g
Mean concentration of radioactivity, Lacrimal gland (accessory) ([1]; 24 h after last dose): 3480 ng Equivalents ^14C-F6H8/g
Mean concentration of radioactivity, Lacrimal gland (main) ([1]; 24 h after last dose): 3630 ng Equivalents ^14C-F6H8/g
Mean concentration of radioactivity, Meibomian glands ([1]; 24 h after last dose): 45500 ng Equivalents ^14C-F6H8/g
Mean concentration of radioactivity, Sclera (anterior) ([1]; 24 h after last dose): 2410 ng Equivalents ^14C-F6H8/g
Mean concentration of radioactivity, Tears ([1]; 24 h after last dose): 46800 ng Equivalents ^14C-F6H8/g
Highest mean concentration, Meibomian glands [1, 3]: 222000 ng equivalents ^14C—F6H8/g
Highest mean concentration, accessory lacrimal gland [1, 3]: 9280 ng equivalents ^14C—F6H8/g
Highest mean concentration, bulbar conjunctiva [1, 3]: 8290 ng equivalents ^14C—F6H8/g
Highest mean concentration, cornea [1, 3]: 27600 ng equivalents ^14C—F6H8/g
Highest mean concentration, main lacrimal gland [1, 3]: 8890 ng equivalents ^14C—F6H8/g
Highest mean concentration, palpebral conjunctiva [1, 3]: 14000 ng equivalents ^14C—F6H8/g
Highest mean concentration, tears [1, 3]: 2330000 ng equivalents ^14C—F6H8/g
Ocular tissue concentrations, multiple compared to single topical ocular administration ([1]; multiple vs single dose scheme): higher concentrations
Highest concentration, cornea [2]: 33500 ng equivalents ^14C—F6H8/g
Highest concentration, eyelid margin [2]: 443000 ng equivalents ^14C—F6H8/g
Highest concentration, internal eyelid [2]: 171000 ng equivalents ^14C—F6H8/g
Substance: ^14C-1-Perfluorohexyloctane [^14C-F6H8]
